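Values below derive from 48-hour exposures of cells grown in 96-well plates, with endpoints linearly interpolated between the two concentrations bracketing the appropriate inhibition level. The concentration for full growth arrest is given as TGI.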

Common to all, as to assay: NCI-60 cell line screen, 48 h
Assay [1] relates to HCC-2998 colon.
In assay [2] the test system is IGROV1 ovarian.
For assay [3], the system named is M14 melanoma.
The test system of assay [4] is MOLT-4 leukemia.
The test system of assay [5] is RPMI-8226 leukemia.
For assay [6], the system named is RXF 393 renal.
Assay [7] deals with SF-539 CNS.
For assay [8], the system named is SNB-19 CNS.
In assay [9] the test system is TK-10 renal.
The subject of assay [10] is UACC-257 melanoma.

As for `COc1ccc([C@H]2C=C(c3cc(F)c(Cl)cc3Cl)N=c3s/c(=C\c4ccc(-c5ccc(Cl)cc5Cl)o4)c(=O)n32)cc1`, the TGI was 47.8 µM in [1]; more than 100 µM in assay [2]; more than 100 µM in assay [3]; more than 100 µM in assay [4]; more than 100 µM in assay [5]; more than 100 µM in assay [6]. For the same molecule, the TGI in [7], in assay [8], in [9] and in assay [10] was more than 100 µM throughout.
As for `COc1cc(CNC(=O)CCCCCCCCCCSC#N)ccc1O`, the TGI in assay [1] was more than 100 µM; in [2], 22.9 µM; in assay [3], 21.5 µM; in assay [4], 31.1 µM; in assay [5], 59.5 µM; in assay [6], 21.9 µM. Moreover, the TGI in assay [7] was 37.1 µM; in assay [8] it was 48.3 µM; in [9], 44 µM; in [10], 41.1 µM.
For `C=CCOC1=C(OC(C)=O)C(C2COC(C)(C)O2)OC1=O` (stereo not given), the TGI in assay [1] was more than 100 µM; in assay [2], more than 100 µM; in assay [3] it was 53.8 µM; in assay [4], 43.8 µM; in assay [5], 61 µM; in assay [6], 46.3 µM. The TGI in assay [7] was more than 100 µM; in assay [8] it was more than 100 µM; in assay [9], 68.7 µM; in [10], 39.7 µM.
As for `O=[N+]([O-])C(=C(\Cl)NCCO)/C(Cl)=C(/Cl)Br`, the TGI came to 11.1 µM in assay [1]; 10.6 µM in [2]; 3.68 µM in [3]; 2.93 µM in assay [4]; 6.14 µM in assay [5]; 5.95 µM in assay [6]. Besides, the TGI in assay [7] turned out to be 6.15 µM; in assay [8] it was 18 µM; in assay [9], 4.91 µM; in assay [10], 4.4 µM.
`CC1(C)CC(=O)C(/C=N/c2nc(-c3cccc([N+](=O)[O-])c3)cs2)=C(O)C1`: the TGI in assay [1] is 29.1 µM; in assay [2], 44.7 µM; in [3], 38.2 µM; in assay [4] it was more than 100 µM; in assay [5], 43.9 µM; in assay [6], 46.9 µM. The TGI in assay [7] was found to be 45.6 µM; in [8], 46.9 µM; in assay [9] it was 92.5 µM; in assay [10], 49.7 µM.
For the molecule `CSc1nnc2n1-c1ccccc1SCC2`, the TGI in assay [1], in assay [2], in assay [3], in assay [4], in assay [5] and in assay [6] was more than 100 µM in each case. Further, the TGI in assay [7], in assay [8], in [9] and in assay [10] was more than 100 µM each time.
As for `COc1ccc2oc(=O)c(-c3nc4ccccc4s3)cc2c1`, the TGI in [1] was more than 100 µM; in assay [2], 38.9 µM; in assay [3], more than 58.3 µM; in assay [4], more than 100 µM; in assay [5], more than 100 µM; in [6], 31 µM. For the same molecule, the TGI was 13.7 µM in assay [7], more than 100 µM in [8], more than 100 µM in [9] and more than 100 µM in [10].
Take `C[C@H](OC(=O)/C=C/c1ccc(O)c(O)c1)[C@H](C)OC(=O)/C=C/c1ccc(O)c(O)c1`: the TGI in assay [1] was 33.4 µM; in [2], 31.5 µM; in assay [3] it was 23.5 µM; in assay [4], more than 100 µM; in [5] it was more than 100 µM; in assay [6], 28.5 µM. Besides, the TGI in assay [7] is more than 100 µM; in [8] it was 25.6 µM; in assay [9], 34.2 µM; in assay [10], 29.7 µM.
In the case of `COC(=O)C1=C(C(=O)OC)C2CCC1CC2=O` (stereo not given), the TGI in assay [1], in assay [2], in [3], in assay [4], in [5] and in assay [6] was more than 100 µM in each case. In addition, the TGI in assay [7], in [8], in assay [9] and in assay [10] was more than 100 µM each time.
As to `CC1=NN(c2cccc(S(=O)(=O)O)c2)C2(C1)SCC(=O)N2c1nc2ccccc2s1` (stereo not given), the TGI in assay [1], in [2], in assay [3], in [4], in assay [5] and in [6] was more than 100 µM throughout. Further, the TGI in assay [7], in assay [8], in assay [9] and in [10] was more than 100 µM in each case.
As for `NCCCCNCCCNC(=O)c1csc(-c2nc(CCN)sc2Cl)n1`, the TGI in assay [1], in [2], in assay [3], in assay [4], in assay [5] and in [6] was more than 100 µM each time. Moreover, the TGI in [7], in assay [8], in assay [9] and in assay [10] was more than 100 µM each time.
In the case of `O=C(CCCN1CCC(Nc2ccc(F)cc2)(c2nnnn2C2CCCCC2)CC1)c1ccc(F)cc1`, the TGI in [1] is more than 100 µM; in assay [2] it was 12.3 µM; in [3] it was 32.4 µM; in assay [4] it was more than 100 µM; in assay [5], 34.4 µM; in assay [6], 25.5 µM. Besides, the TGI in assay [7] stood at 30.5 µM; in assay [8], 36 µM; in assay [9], 29.4 µM; in assay [10] it was 57.3 µM.
As for `COc1ccc(C2=Nn3c(C)nnc3S/C2=C\c2ccc(-c3ccc([N+](=O)[O-])cc3)o2)cc1`, the TGI came to 19.9 µM in assay [1]; 42.7 µM in assay [2]; 48.2 µM in [3]; 18 µM in [4]; 15.5 µM in assay [5]; 22.8 µM in assay [6]. Also, the TGI in assay [7] amounted to 25.6 µM; in [8] it was 38.7 µM; in assay [9], 34.3 µM; in [10] it was 54.7 µM.
For the molecule `CCCCCC(=O)OC[n+]1ccc(-c2c(COC(=O)NC(C)C)c(COC(=O)NC(C)C)c3n2CCC3)cc1`, the TGI in assay [1], in assay [2], in [3], in assay [4], in assay [5] and in assay [6] was more than 100 µM each time. Besides, the TGI in assay [7], in assay [8], in assay [9] and in [10] was more than 100 µM in each case.

The values are drawn from PubChem BioAssay (NCI).
